For assay [1], the target named is T1, Lp-PLA2 in human plasma (Homo sapiens, UniProt Q13093).
T1 construct: from tissue; host or cells: pooled human plasma
T1 sequence (Q13093 22-441): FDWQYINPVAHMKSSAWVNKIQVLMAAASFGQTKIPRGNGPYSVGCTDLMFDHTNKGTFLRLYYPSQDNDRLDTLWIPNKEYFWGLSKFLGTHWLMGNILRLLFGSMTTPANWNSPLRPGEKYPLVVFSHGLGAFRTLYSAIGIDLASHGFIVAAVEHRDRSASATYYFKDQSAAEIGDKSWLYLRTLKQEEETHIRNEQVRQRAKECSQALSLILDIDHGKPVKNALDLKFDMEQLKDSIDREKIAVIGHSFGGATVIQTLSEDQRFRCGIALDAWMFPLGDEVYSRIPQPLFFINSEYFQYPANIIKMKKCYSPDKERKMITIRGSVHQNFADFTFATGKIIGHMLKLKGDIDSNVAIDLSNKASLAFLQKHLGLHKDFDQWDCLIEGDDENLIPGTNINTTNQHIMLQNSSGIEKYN
Kind of assay: Lp-PLA2 human plasma assay, Thio-PAF assay (3a). It counts as biochemical. Conditions: pooled human plasma, Examples 1-137, read-out: pIC50 in the Lp-PLA2 human plasma assay (converted). An excerpt:
The human plasma assay utilizes a thioester analog of PAF (phosphatidylcholine), where hydrolysis yields to the formation of a phospholipid containing a free thiol group. The amount of thiol is quantitated continuously by reacting with CPM (7-diethylamino-3-(4′-maleimidylphenyl)-4-methylcoumarin), a maleimide which increases in fluoresence after Michael addition of thiols. This assay may detect the activity of Lp-PLA2 in human plasma, as determined by specific inhibition by Lp-PLA2 inhibitors.
The thio-PAF assay was run as a quenched 15 μL assay. Compounds source plate was prepared by making 1:3 (by volume) serial dilution of the compounds into pure DMSO on 384-well microplate. 0.01 μL of compounds on compound source plate were transferred to 384 well Greiner 784076 (black) low-volume plates by ECHO liquid dispenser. 8 μL pooled human plasma, which was previously aliquoted and frozen, was added. Plates were centrifuged for 10 sec at 500 rpm. After 30 minutes preincubation, 2 μL of substrate solution comprising 2.5 mM 2-thio-PAF [from ethanol stock], 32 μM CPM [from a DMSO stock] and 3.2 mM NEM (N-ethylmaleimide) [made fresh daily in DMSO] in assay buffer of 50 mM HEPES, pH 7.4, 150 mM NaCl, 1 mM CHAPS was added to 384 well Greiner 784076 (black) low-volume plates by BRAVO liquid handling station. […] Plates were read at ex: 380 /em: 485 using Envision microplate reader. […]

In assay [2] the target is T2, recombinant human Lp-PLA2 (Homo sapiens, UniProt Q13093).
T2 sequence (Q13093 22-441): T1 sequence (Q13093 22-441)
The assay is described as follows: Recombinant human Lp-PLA2 assay, hrThioPAF assay. It counts as biochemical. Conditions: Example 138, read-out: rhLp-PLA2 (pIC50) (converted). An excerpt:
1-O-hexadecyl-2-deoxy-2-thio-S-acetyl-sn-glyceryl-3-phosphorylcholine (2-thio-PAF) is a substrate for PAF-hydrolases (PAF-AH) commercially available from Cayman Chemical. Upon cleavage with PAF-AH, the free thiol is released at the sn-2 position and can then react with 7-diethylamino-3-(4′-maleimidylphenyl)-4-methylcoumarin (CPM) a thiol-reactive coumarin. This reaction (Michael addition) results in an increase in fluorescence. Inhibitors of Lp-PLA2 therefore prevent this cleavage and no fluorescent increase is observed.
The Thio-PAF assay was run as an unquenched 20 μL assay. The source plate containing the compounds to be tested was prepared by making 1:3 (by volume) serial dilution of the compounds within DMSO on 384-well microplate. Then, 5 μL of the compounds on compound source plate were transferred into 384 well Greiner 784076 (black) plates using STAR+ (Hamilton) liquid dispenser. 10 μL of recombinant human Lp-PLA2 enzyme (20 pM rhLp-PLA2 in assay buffer of 50 mM HEPES, pH 7.4, 150 mM NaCl, 1 mM CHAPS) was added to each well of the plate. […] The plates were read for fluorescence intensity at ex: 380 nm/em: 485 nm using Envision plate reader (Perkin Elmer). […]

Assay [3] deals with T1, Lp-PLA2 in human plasma. The assay is described as follows: Lp-PLA2 human plasma assay, alternative Thio-PAF assay (3b). It is filed as biochemical. As to conditions: pooled human plasma, Example 138, read-out: pIC50 in the Lp-PLA2 human plasma assay (converted). On the procedure:
The human plasma assay utilizes the same thioester analog of PAF as described in (1b) “hr ThioPAF” assay. This assay may detect the activity of Lp-PLA2 in human plasma, as determined by specific inhibition by Lp-PLA2 inhibitors.
The thio-PAF assay was run as a quenched 20 μL assay. Compounds source plate was prepared by making 1:3 (by volume) serial dilution of the compounds into pure DMSO on 96-well microplate. 5 μL of compounds on compound source plate were transferred to 96-well Corning 3686 (black) low-volume plates by STAR+ (Hamilton) liquid dispenser. 10 μL pooled human plasma, which was previously aliquoted and frozen, was added. Plates were centrifuged for 30 sec at 1000 rpm. After 15 minutes preincubation at room temperature, 5 μL of substrate solution comprising 2 mM 2-thio-PAF [from ethanol stock], 52 μM CPM [from a DMSO stock] and 2.5 mM NEM (N-ethylmaleimide) [made fresh daily in DMSO] in assay buffer (50 mM HEPES, pH 7.4, 150 mM NaCl, 1 mM CHAPS) was added to 96-well Corning 3686 (black) low-volume plates. After 3 mins, reaction was quenched with 10 μL of 5% aqueous trifluoroacetic acid (TFA). Plates were centrifuged 30 sec at 1000 rpm, covered to protect from light and incubated for 10 min at room temperature. Plates were read at ex: 380 nm/em: 485 nm using Envision plate reader (Perkin Elmer). […]

For the next assay, the system named is rat EAE model. The assay is described as follows: Rat experimental autoimmune encephalomyelitis (EAE) model, preventive treatment. It is filed as in vivo. On the procedure: A further study was carried out to study the impact of Lp-PLA2 inhibitors on modulating M1/M2 imbalance. In this study, rats were induced to develop experimental autoimmune encephalomyelitis (EAE) by immunization with myelin basic protein (MBP) antigen and treated with a known Lp-PLA2 inhibitor: 5-((9-Methoxy-4-oxo-6,7-dihydro-4H-pyrimido[6,1-a]isoquinolin-2-yl)oxy)-2-(3-(trifluoromethyl)phenoxy)benzonitrile (See PCT application no. PCT/CN2011/001597). In this preventive treatment model, the compound was administered at day 0 (day of immunization) and continued to administer until day 22. The study lasted for 25 days. Rats were subsequently monitored for symptoms of EAE. Rats were immunized with MBP to develop EAE and symptoms were monitored daily. Plasma Lp-PLA2 activity, OxLDL, and LysoPC concentration were determined at different time points through the course of EAE.

For assay [4], the system named is splenic macrophages and CNS infiltrating macrophages. The assay is described as follows: Ex vivo analysis of M1 and M2 markers in macrophages of EAE rats by realtime PCR. Further details: species or system rat. Conditions: macrophages of compound treated EAE rats, day 13 post MBP-immunization. The method, then: Ex vivo analysis of proinflammatory (M1) and anti-inflammatory (M2) markers in control and compound treated EAE rats. Splenic macrophages were harvested at day 13 post MBP-immunization and assayed for expression of a variety of markers by realtime PCR. CNS infiltrating cells were harvested and macrophages were analyzed for expression of M1 and M2 markers by realtime PCR.

Assay [5] has as its target T2, recombinant human Lp-PLA2. Kind of assay: Recombinant human Lp-PLA2 assay (rhLp-PLA2), PED6 assay. It counts as biochemical. Conditions: Examples 1-137, read-out: rhLp-PLA2 (pIC50) (converted). From the text: N-((6-(2,4-dinitrophenyl)amino)-hexanoyl)-2-(4,4-difluoro-5,7-dimethyl -4-bora-3a,4a-diaza-s-indacene-3-pentanoyl)-1-hexadecanoyl-sn-glycero-3-phosphoethanolamine, triethylammonium salt (PED6) is a commercially available fluorescently-labeled phospholipid, which is commercially available from Invitrogene and Molecular Probes. There is a quenching para-nitro phenyl (PNP) group in the sn3 position and a Bodipy fluorescein (FL) group in the sn2 position. Upon cleavage with Lp-PLA2, the Bodipy FL group is liberated and then may result in an increase in fluorescence. Inhibitors of Lp-PLA2 therefore prevent this cleavage and no fluorescent increase is observed.
The PED6 assay was run as an unquenched 10 μL assay. The source plate containing the compounds to be tested was prepared by making 1:3 (by volume) serial dilution of the compounds within DMSO on 384-well microplate. Then, 0.01 μL of the compounds on compound source plate were transferred into 384 well Greiner 784076 (black) plates using ECHO liquid dispenser. […] The plates were read for fluorescence intensity at ex: 480/em: 540 using ViewLux microplate imager for Envision spectrofluroimeters pIC50 data, curve and QC analysis was conducted by using XL fit module in Excel.

Some results are limits rather than exact numbers.

Consider `C[C@H]1Cn2c(cc(OCc3cccc(F)c3F)nc2=O)N1C` [E111, (S)-7-((2,3-difluorobenzyl)oxy)-1,2-dimethyl-2,3-dihydroimidazo[1,2-c]pyrimidin-5(1H)-one], for which the IC50 on Lp-PLA2 in human plasma [1] is over 10 µM.

For `C[C@@H]1Cn2c(cc(OCc3cc(F)c(Oc4ccnc(C(F)(F)F)c4)c(F)c3)nc2=O)N1` [E138, (R)-7-((3,5-difluoro-4-((2-(trifluoromethyl)pyridin-4-yl)oxy)benzyl)oxy)-2-methyl-2,3-dihydroimidazo[1,2-c]pyrimidin-5(1H)-one], the IC50 in assay [2] was 0.794 nM; at Lp-PLA2 in human plasma [3], at most 100 nM.

With `CC1(C)Cn2c(cc(OCc3ccc(F)c(F)c3)nc2=O)N1` [E120, 7-((3,4-difluorobenzyl)oxy)-2,2-dimethyl-2,3-dihydroimidazo[1,2-c]pyrimidin-5(1H)-one], the IC50 at Lp-PLA2 in human plasma [1] is over 10 µM.

Consider `COc1ccc2c(c1)CCn1c-2cc(Oc2ccc(Oc3cccc(C(F)(F)F)c3)c(C#N)c2)nc1=O` [5-((9-Methoxy-4-oxo-6,7-dihydro-4H-pyrimido[6,1-a]isoquinolin-2-yl)oxy)-2-(3-(trifluoromethyl)phenoxy)benzonitrile], for which, in the assay on rat EAE model (rat EAE plasma), the “plasma Lp-PLA2 activity” value is on record as “decreased” and the “plasma LysoPC levels” value is given as “decreased”. Also, in the assay on rat EAE model (rats immunized with MBP, compound administered day 0 until day 22), the “clinical disease (EAE symptoms)” value is listed as “reduction in clinical disease”. In addition, in assay [4], the “anti-inflammatory (M2) markers expression” value is reported as “increase in M2 markers” and the “proinflammatory (M1) markers expression” value is “decrease in M1 markers”.

For `C[C@H]1Cn2c(cc(OCc3cc(F)c(Oc4ccnc(C(F)(F)F)c4)c(F)c3)nc2=O)N1` [E131, (S)-7-((3,5-difluoro-4-((2-(trifluoromethyl)pyridin-4-yl)oxy)benzyl)oxy)-2-methyl-2,3-dihydroimidazo[1,2-c]pyrimidin-5(1H)-one], the IC50 in assay [5] is 0.251 nM.

(Values after patent US9708330B2, “2,3-dihydroimidazol[1,2-C]pyrimidin-5(1-H)-one based ipoprotein-associated phospholipase A2 (Lp-PLA2) inhibitors” (GlaxoSmithKline Intellectual Property Development Limited, priority 2013, dated 2017).)
